According to patent US20090030037A1, “Sustained Release Formulation and Dosing Schedules of Leukotriene Synthesis Inhibitor for Human Therapy” (deCODE Genetics ehf., priority 2005, published 2009):

Columns and labels:
Type in all cases: in vivo, human
[1] = Study DG-031-204: creatine kinase; conditions: 500 mg BID or TID
Description: (§1) An additional single site, open label study was carried out to obtain biomarker and safety data on additional DG-031 doses (i.e., 1000 mg and 1500 mg). This study examined the safety, tolerability and dose-related effects of DG-031 on inflammatory biomarkers including: LTB4, hsCRP, and MPO. A total of 119 patients with a prior history of CAD and MI were randomized to receive either 1000 mg DG-031 (500 mg BID) or 1500 mg DG-031 (500 mg TID) daily for 4-6 weeks. Treatment with DG-031 in addition to the subject's standard care, medication, and treatment, was prescribed by the patient's cardiologist. A majority of the subjects received statin therapy before, during and after the study. Follow-up assessments were performed 2 weeks after the end of study drug administration.
Liver function tests (AST, ALT, GGT) were assessed weekly during study drug administration and two weeks after dosing. […] Serum creatinine (Cr) was measured weekly during study drug administration and two weeks after dosing. In both the 500 mg BID and 500 mg TID treatment groups, mean serum Cr concentrations increased 4-5% relative to baseline levels. At the 2-week follow up visit, mean serum Cr returned to baseline in the cohort treated for 4 weeks, but remained elevated in the group treated for 6 weeks. Creatine kinase (CK) measurements were obtained weekly during study drug administration and two weeks after dosing.

[2] = Population pharmacokinetic analysis (studies DG-031-201, DG-031-203)
Description: Preliminary population pharmacokinetic (PK) analysis was also carried out based on clinical studies DG-031-201 and DG-031-203. Based on visual inspection of the individual and mean time course of DG-031 concentrations, a simple one compartmental disposition model following first order oral absorption, and an absorption lag time was fit to the data. A mixed effects modeling approach was used. The pharmacokinetic model parameters (fixed effects) included oral clearance (CL), distribution volume (V), oral absorption (ka), and absorption lag (tiag). The statistical model includes inter-individual random effects as well as a residual error term. All inter-subject random effect parameters (it's) and residual error terms (&) are assumed to be normally distributed with mean of zero and variance o2 and a2, respectively. Random effects on all pharmacokinetic model parameters were explored. Maximum likelihood estimates of the structural (0's) and statistical model parameters were estimated using an approximation to the mixed effect log-likelihood as implemented in the NONMEM program (NONMEM Version Vi).
The influence of patient characteristics (covariates) on pharmacokinetic parameters was explored. Age, gender, body weight, and CrCL (creatinine clearance) were included in the model as covariates if warranted.
Model selection will be done on the basis of the log-likelihood criterion (p<0.05) and visual inspection of goodness-of-fit plots. The difference in −2 times the log of the likelihood (−2LL) between a full and reduced model is asymptotically χ^2 distributed with degrees of freedom equal to the difference in number of parameters between the two models. For instance, a decrease of more than 3.84 in −2LL is considered significant at the p<0.05 level for 1 additional parameter. Standard errors of the parameter estimates are approximated using the asymptotic covariance matrix.

hsCRP = test: Study DG-031-204: hsCRP; conditions: after 4 weeks
Description: as §1
(§2) The biomarkers were analyzed as described in Example 1. Statistical analysis of the data was carried out using a one-sample t-test on change from baseline with a two-sided nominal significance level of 0.050. Biomarker concentrations were log-transformed and a simple last observation carried forward (LOCF) scheme was used to impute missing observations.
Additionally, hsCRP was measured weekly and tended to decrease in the 1000 mg treatment group. […]

LDL-C = test: Study DG-031-204: LDL-C; conditions: for LDL-C increase, mean change from baseline: after 4 weeks
Description: as §1, §2
LDL-C was measured weekly after administration of DG-031 500 mg BID or 500 mg TID. The mean change from baseline after 4 weeks of treatment was an increase of 9% (p=0.004; n=52) for 500 mg BID and an increase of 9% (p<0.001; n=58) for the 500 TID group. […] The LDL-C effect appeared to increase over time and tended toward baseline values at the 2-week follow up visit. A preliminary exposure-response analysis of data from studies DG-031-201, DG-031-203, and DG-031-204 supported a dose related increase in LDL-C.

CD40L = test: Study DG-031-204: CD40L; conditions: after 4 weeks
Description: as §1, §2
CD40L was measured at 2-week intervals. […] After 4 weeks, there was a 22% (p<0.001; n=55) reduction in CD40L in the 500 mg BID group and a 21% (p<0.001; n=57) reduction in the 500 mg TID group. CD40L levels remained suppressed at the 2 week follow up visit.

CRP = test: Study DG-031-203: serum CRP
Description: The study also collected information on the dose-related effect of DG-031 on capacity for LTB4 production (ex vivo), plasma MPO, and serum-CRP. […] The pattern observed supported a concentration dependent pharmacologic effect of DG-031 on capacity for LTB4 production measured ex vivo. The effects on LTB4 production amounted to a 30% (p=0.016) and 25% (p=0.094) reduction with the 375 mg BID and 250 mg TID doses, respectively.

MPO = test: Study DG-031-204: MPO in ionomycin-stimulated whole blood; conditions: for Stimulated MPO from whole blood (% change from baseline, whole blood, WBC corrected, 60 minute), mean response: after 4 weeks of DG-031 administration
Description: as §1, §2
Plasma MPO concentration was measured weekly. MPO measurements in ionomycin-stimulated whole blood were also measured in a subset of patients at 4 weeks.

## O=C(O)[C@@H](c1ccc(OCc2ccc3ccccc3n2)cc1)C1CCCC1 [DG-031, (R)-(+)-alpha-cyclopentyl-4-(2-quinolinylmethoxy)-Benzeneacetic acid]
[1]
  Mean CK concentrations: No adverse trends
[2]; 250 mg to 1500 mg administered daily
  PK linearity: linear PK
[2]; 90 kg patient
  oral CL: 5.86 L/h
[2]; BID dosing
  Accumulation: 12%
[2]; human, plasma, oral
  V (distribution volume): 32 L
  V, inter-subject CV %: 44%
[2]; human, plasma, oral, MI patients, estimated, read-out: Terminal elimination half-life (converted)
  half-life: ~4 h
[2]; in vivo
  Effect of body weight on CL: minor effects
hsCRP; 1000 mg treatment group
  hsCRP reduction, mean change from baseline: 20%
hsCRP; 1500 mg treatment group
  hsCRP reduction, mean change from baseline: 3%
LDL-C; 500 mg BID
  LDL-C increase, mean change from baseline: 9%
LDL-C; 500 mg TID
  LDL-C increase, mean change from baseline: 9%
LDL-C; dose 250
  LDL-C percent change from baseline after 4 weeks of DG-031 administration, Mean: 2.3%
LDL-C; dose 500
  LDL-C percent change from baseline after 4 weeks of DG-031 administration, Mean: 5.0%
LDL-C; dose 750
  LDL-C percent change from baseline after 4 weeks of DG-031 administration, Mean: 7.7%
LDL-C; dose 1000
  LDL-C percent change from baseline after 4 weeks of DG-031 administration, Mean: 10.3%
LDL-C; dose 1250
  LDL-C percent change from baseline after 4 weeks of DG-031 administration, Mean: 13.0%
LDL-C; dose 1500
  LDL-C percent change from baseline after 4 weeks of DG-031 administration, Mean: 15.7%
CD40L; 500 mg BID
  Reduction in CD40L: 22%
CD40L; 500 mg TID
  Reduction in CD40L: 21%
CRP; 250 mg TID, CRP above median 1.4 mg/L at entry
  Reduction in CRP levels, high CRP group: 48%
CRP; 250 mg TID, Study 203, 1 wk
  CRP, change: 37% (St. 203)
CRP; 250 mg TID, after one week, follow-up study (203), all subjects
  Reduction of serum CRP: 38%
CRP; 375 mg BID, CRP above median at entry, p=0.16
  Reduction in CRP levels, high CRP group: 31%
CRP; 375 mg BID, Study 203
  CRP, change: No effect
CRP; 375 mg BID, one week, all subjects
  Change in serum CRP: −1%
CRP; 375 mg QD, Study 203, 1 wk
  CRP, change: −28%
MPO; 500 mg BID or TID, 4 weeks
  Stimulated whole blood MPO concentrations: decreased
MPO; 1000 mg (500 mg BID)
  Stimulated MPO from whole blood (% change from baseline, whole blood, WBC corrected, 60 minute), mean response: −19%
MPO; 1500 mg (500 mg TID)
  Stimulated MPO from whole blood (% change from baseline, whole blood, WBC corrected, 60 minute), mean response: −29%
